Source: patent US20030125321A1, “Methods and compositions for treating respiratory pathologies” (priority 2001, published 2003)

Tested on: male Wistar rats
Experiment: Pulmonary paracellular permeability to 125I labelled human serum albumin after intratracheal Pseudomonas aeruginosa LPS
Assay type: in vivo, rat
Description: Pulmonary permeability was measured by means of a tracer, ^125I -labelled human serum albumin which, after intratracheal infusion, was determined in urine, plasma, lung tissue and bronchoalveolar lavage fluid.
For this experiment, three groups of 6 male Wistar rats (200-225 g) were pretreated either with ML-7 by the IP route (3 mg/kg then 1 mg/kg 3 times a day for 48 h) or the vehicle (ethanol 10%). One hour after the next-to-last administration of ML-7, under urethane anesthesia ([…] IP), a slow intratracheal infusion of 150 μl of an iso-osmolar solution (5% bovine albumin +PBS) containing the tracer and containing (2 groups) or not containing (control group) LPS (1 μg/rat) was given.
Four hours after the intratracheal infusion, urine, blood, bronchoalveolar lavage (BAL) and lungs were harvested and ^125I radioactivity was measured on each sample.

effect on vascular endothelial cells (endothelium permeability, tone, pulmonary circulating hemodynamics) (inferred from unchanged plasma radioactivity): does not present effect
Structure (SMILES): O=S(=O)(c1cccc2c(I)cccc12)N1CCCNCC1 [ML-7, 1-(5-iodonaphtalene-1-sulfonyl)-1H-hexahydro-1,4-diazepine]
LPS-induced increase in pulmonary permeability (ML-7 pretreatment IP 3 mg/kg then 1 mg/kg 3 times a day for 48 h): inhibited
